The Ki is a dissociation constant, usually derived from enzyme kinetics or from competition with a known ligand. A higher Ki goes with a looser hold on the target.

In PMC4816213 (Bioorganic & medicinal chemistry letters, 2015) one finds Ki data, which are given here for 1 molecule.

Experiment [1] has as its target PBR. The experiment is described as follows: radioligand competition binding.
Experiment [2] addresses β3 (Homo sapiens, UniProt P13945). Briefly: biochemical.
The target of experiment [3] is D5 (Homo sapiens, UniProt P21918). The experiment is described as follows: biochemical.
The target of experiment [4] is β1 (Homo sapiens, UniProt P08588). The experiment is described as follows: biochemical.
Experiment [5] has as its target NOP (Homo sapiens, UniProt P41146). Briefly: biochemical.
Experiment [6] concerns the target DOR (Homo sapiens, UniProt P41143). Briefly: biochemical.
In experiment [7] the target is DAT (Homo sapiens, UniProt Q01959). The experiment is described as follows: biochemical.
For experiment [8], the target named is HERG (Homo sapiens, UniProt Q12809). The experiment is described as follows: biochemical.
Experiment [9] addresses Sigma2. The experiment is described as follows: radioligand competition binding.
The target in experiment [10] is Sigma1. The experiment is described as follows: radioligand competition binding. For orientation: Loss of bound radioactivity is the signal in a displacement assay; it reports binding, not function.

HERG, sequence (Q12809 whole entry): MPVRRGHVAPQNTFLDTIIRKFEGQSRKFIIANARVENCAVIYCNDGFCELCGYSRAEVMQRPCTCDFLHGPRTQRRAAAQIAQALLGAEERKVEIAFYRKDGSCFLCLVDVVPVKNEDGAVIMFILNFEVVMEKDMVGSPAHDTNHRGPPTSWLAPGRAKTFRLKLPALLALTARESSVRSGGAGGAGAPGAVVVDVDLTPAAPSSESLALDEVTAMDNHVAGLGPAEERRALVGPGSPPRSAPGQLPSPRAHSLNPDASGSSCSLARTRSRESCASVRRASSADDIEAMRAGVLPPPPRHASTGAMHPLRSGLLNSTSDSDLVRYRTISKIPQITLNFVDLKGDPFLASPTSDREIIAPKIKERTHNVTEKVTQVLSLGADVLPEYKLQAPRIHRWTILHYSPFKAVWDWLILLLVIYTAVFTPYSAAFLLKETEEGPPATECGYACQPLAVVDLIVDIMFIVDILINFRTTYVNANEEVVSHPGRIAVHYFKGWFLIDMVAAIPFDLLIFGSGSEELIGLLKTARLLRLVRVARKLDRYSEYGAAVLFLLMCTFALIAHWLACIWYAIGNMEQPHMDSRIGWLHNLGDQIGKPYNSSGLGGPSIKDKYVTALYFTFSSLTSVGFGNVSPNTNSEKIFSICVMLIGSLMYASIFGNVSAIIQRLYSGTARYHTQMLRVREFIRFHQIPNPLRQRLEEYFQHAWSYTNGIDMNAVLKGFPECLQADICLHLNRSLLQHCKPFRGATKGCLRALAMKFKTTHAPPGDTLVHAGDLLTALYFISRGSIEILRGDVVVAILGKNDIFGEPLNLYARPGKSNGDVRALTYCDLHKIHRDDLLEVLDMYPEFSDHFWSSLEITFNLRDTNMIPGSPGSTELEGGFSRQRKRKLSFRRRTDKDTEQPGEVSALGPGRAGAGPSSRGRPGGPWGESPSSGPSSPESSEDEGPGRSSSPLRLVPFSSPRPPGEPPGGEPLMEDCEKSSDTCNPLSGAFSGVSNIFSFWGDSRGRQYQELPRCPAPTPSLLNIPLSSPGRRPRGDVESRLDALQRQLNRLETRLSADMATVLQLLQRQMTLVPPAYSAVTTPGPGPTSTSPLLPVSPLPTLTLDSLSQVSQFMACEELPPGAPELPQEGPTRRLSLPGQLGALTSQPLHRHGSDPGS
β3, sequence (P13945 whole entry): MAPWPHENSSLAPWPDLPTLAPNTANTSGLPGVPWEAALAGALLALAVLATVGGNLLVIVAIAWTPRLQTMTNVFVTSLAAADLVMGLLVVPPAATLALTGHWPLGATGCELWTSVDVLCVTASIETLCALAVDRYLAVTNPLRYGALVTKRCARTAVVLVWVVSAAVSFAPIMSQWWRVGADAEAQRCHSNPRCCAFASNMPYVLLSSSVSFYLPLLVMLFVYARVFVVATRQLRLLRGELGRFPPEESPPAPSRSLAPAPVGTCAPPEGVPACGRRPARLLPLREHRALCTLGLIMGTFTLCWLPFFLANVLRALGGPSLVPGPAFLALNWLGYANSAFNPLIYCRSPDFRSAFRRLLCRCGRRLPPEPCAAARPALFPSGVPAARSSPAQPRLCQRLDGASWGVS
DAT, sequence (Q01959 whole entry): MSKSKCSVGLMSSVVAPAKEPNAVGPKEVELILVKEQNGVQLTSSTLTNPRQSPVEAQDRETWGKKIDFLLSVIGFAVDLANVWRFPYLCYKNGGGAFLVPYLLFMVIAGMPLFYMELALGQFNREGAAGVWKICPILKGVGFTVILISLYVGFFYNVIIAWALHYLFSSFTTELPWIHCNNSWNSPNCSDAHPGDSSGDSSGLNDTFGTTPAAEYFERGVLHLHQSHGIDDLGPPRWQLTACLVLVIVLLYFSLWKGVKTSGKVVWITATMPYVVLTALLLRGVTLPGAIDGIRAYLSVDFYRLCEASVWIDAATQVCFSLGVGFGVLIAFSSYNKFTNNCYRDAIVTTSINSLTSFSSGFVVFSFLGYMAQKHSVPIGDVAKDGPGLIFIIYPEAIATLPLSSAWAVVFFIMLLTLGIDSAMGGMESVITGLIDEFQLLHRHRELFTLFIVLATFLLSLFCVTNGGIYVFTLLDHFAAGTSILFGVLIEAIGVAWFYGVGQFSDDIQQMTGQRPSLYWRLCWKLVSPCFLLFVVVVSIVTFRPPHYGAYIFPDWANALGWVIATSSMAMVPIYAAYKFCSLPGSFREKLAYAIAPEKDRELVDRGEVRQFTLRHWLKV
β1, sequence (P08588 whole entry): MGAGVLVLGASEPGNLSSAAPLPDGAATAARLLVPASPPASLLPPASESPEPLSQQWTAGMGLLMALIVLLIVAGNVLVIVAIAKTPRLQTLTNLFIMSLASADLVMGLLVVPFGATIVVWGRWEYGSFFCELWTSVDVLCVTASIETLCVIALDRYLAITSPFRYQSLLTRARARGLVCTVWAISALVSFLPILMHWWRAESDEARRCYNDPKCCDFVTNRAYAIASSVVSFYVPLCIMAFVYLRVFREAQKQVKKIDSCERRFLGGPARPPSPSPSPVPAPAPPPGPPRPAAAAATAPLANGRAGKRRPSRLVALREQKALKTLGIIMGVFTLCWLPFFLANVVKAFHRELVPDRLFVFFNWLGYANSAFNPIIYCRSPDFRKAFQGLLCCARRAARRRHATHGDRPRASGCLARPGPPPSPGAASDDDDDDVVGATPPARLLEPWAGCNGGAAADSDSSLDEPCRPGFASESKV
DOR, sequence (P41143 whole entry): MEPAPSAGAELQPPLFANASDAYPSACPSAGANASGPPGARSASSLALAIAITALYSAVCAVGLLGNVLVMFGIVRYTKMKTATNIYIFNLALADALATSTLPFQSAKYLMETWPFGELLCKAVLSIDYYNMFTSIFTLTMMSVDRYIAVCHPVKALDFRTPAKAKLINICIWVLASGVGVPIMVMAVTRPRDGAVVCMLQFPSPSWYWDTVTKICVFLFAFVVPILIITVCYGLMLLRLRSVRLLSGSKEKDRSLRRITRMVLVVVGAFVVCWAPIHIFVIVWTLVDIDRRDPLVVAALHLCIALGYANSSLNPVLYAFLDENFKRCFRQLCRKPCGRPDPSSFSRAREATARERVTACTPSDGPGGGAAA
NOP, sequence (P41146 whole entry): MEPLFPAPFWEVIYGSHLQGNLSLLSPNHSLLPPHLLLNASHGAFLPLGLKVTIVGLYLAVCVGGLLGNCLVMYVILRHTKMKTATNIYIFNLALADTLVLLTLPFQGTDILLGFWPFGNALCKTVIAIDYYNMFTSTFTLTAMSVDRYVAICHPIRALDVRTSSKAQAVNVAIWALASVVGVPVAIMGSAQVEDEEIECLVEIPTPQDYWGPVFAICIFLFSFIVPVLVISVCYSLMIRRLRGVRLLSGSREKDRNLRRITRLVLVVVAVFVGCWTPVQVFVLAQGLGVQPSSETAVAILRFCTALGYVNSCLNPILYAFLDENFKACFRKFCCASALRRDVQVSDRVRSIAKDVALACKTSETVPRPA
D5, sequence (P21918 whole entry): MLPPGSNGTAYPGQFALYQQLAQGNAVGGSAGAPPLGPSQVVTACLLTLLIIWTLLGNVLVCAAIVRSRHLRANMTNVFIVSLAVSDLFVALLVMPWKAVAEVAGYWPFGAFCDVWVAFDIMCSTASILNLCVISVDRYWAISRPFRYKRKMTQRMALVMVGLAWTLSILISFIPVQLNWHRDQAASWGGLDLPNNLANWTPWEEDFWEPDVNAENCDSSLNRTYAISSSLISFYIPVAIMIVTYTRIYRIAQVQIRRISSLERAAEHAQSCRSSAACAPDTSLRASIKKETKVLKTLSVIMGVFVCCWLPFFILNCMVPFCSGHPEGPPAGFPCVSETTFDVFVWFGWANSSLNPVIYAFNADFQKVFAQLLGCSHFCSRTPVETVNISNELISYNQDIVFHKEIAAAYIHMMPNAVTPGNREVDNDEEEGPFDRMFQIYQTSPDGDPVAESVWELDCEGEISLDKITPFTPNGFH

Consider `COc1cc(CCNCc2ccccc2OCCF)c(OC)cc1Br` [compound 1, 2-(4-bromo-2,5-dimethoxyphenyl)-N-(2-(2-fluoroethoxy)benzyl)ethanamine], for which the Ki in experiment [1] was 0.876 µM; in experiment [2] it was over 10 µM; in [3], over 10 µM; in experiment [4] it was over 10 µM; in [5], over 10 µM; in experiment [6], over 10 µM. The Ki is over 10 µM in experiment [7], over 10 µM in experiment [8], 0.051 µM in experiment [9] and 0.499 µM in [10].
